# Key:
# Staphylococcus aureus [1] = assay: Antibacterial activity against ciprofloxacin resistant methicillin resistant Staphylococcus aureus OC5273; type: functional
# Staphylococcus aureus [2] = assay: Antibacterial activity against Staphylococcus aureus ATCC 13709; type: functional
# [3] = Inhibition of bacterial DNA gyrase
# Streptococcus pneumoniae = assay: Antibacterial activity against Streptococcus pneumoniae ATCC 49619; type: functional
# Staphylococcus aureus [4] = assay: Antibacterial activity against ciprofloxacin resistant methicillin resistant Staphylococcus aureus OC4222; type: functional
# Staphylococcus aureus [5] = assay: Antibacterial activity against ciprofloxacin resistant methicillin resistant Staphylococcus aureus OC4159; type: functional
# [6] = Inhibition of bacterial DNA topoisomerase 4
# Staphylococcus aureus [7] = assay: Antibacterial activity against ciprofloxacin resistant methicillin resistant Staphylococcus aureus OC3946; type: functional
# Escherichia coli = assay: Antibacterial activity against Escherichia coli KL16; type: functional
# Staphylococcus aureus [8] = assay: Antibacterial activity against quinolone susceptible methicillin resistant Staphylococcus aureus OC2878; type: functional
MIC (Staphylococcus aureus [2]) [µg/mL],IC50 [3] [µg/mL],MIC (Streptococcus pneumoniae) [µg/mL],IC50 [6] [µg/mL],MIC (Escherichia coli) [µg/mL],SMILES,MIC (Staphylococcus aureus [1]) [µg/mL],MIC (Staphylococcus aureus [4]) [µg/mL],MIC (Staphylococcus aureus [5]) [µg/mL],MIC (Staphylococcus aureus [7]) [µg/mL],MIC (Staphylococcus aureus [8]) [µg/mL]
0.5,2,8,0.125,> 128,O=C1CSc2ccc(C(=O)NC3CCc4nn(-c5cccc6ccccc56)cc4C3)cc2N1 (configuration not stated),–,–,–,–,–
2,16,> 128,> 0.5,> 128,O=C1CSc2ccc(C(=O)NC3CCc4nn(-c5ccnc6cc(Cl)ccc56)cc4C3)cc2N1 (configuration not stated),–,–,–,–,–
8,4,> 128,0.5,> 128,Cc1cc(-n2cc3c(n2)CCC(NC(=O)c2ccc4c(c2)NC(=O)CS4)C3)c2cc(F)ccc2n1 (configuration not stated),–,–,–,–,–
0.5,> 32,8,> 1,> 128,COc1ccc2nccc(-n3cc4c(n3)CCC(NC(=O)c3ccc5c(c3)OCCO5)C4)c2n1 (configuration not stated),–,–,–,–,–
2,4,8,–,> 128,COc1ccc2nccc(-n3cc4c(n3)CCC(NC(=O)c3ccc5c(c3)OCCO5)C4)c2c1 (configuration not stated),–,–,–,–,–
0.03,1,0.5,0.25,32,COc1ccc2nccc(-n3cc4c(n3)CCC(NCc3ccc5c(c3)OCCO5)C4)c2n1 (configuration not stated),–,–,–,–,–
1,4,4,1,> 128,COc1ccc2nccc(-n3cc4c(n3)CCC(NCc3ccc5c(c3)OCCCO5)C4)c2n1 (configuration not stated),–,–,–,–,–
< 0.125,0.5,0.25,0.03,8,COc1ccc2nccc(-n3cc4c(n3)CCC(NCc3ccc5c(c3)NCCS5)C4)c2n1 (configuration not stated),–,–,–,–,–
0.5,0.5,0.5,0.0625,8,COc1ccc2nccc(-n3cc4c(n3)CCC(NCc3ccc5c(c3)NCCS5)C4)c2c1 (configuration not stated),–,–,–,–,–
1,0.06,2,0.016,2,COc1ccc2nccc(-n3cc4c(n3)CCC(NCc3ccc5c(n3)NC(=O)CO5)C4)c2c1 (configuration not stated),–,–,–,–,–
0.125,1,8,0.25,4,COc1ccc2nccc(-n3cc4c(n3)CCC(NC(=O)c3ccc5c(c3)NC(=O)CO5)C4)c2n1 (configuration not stated),–,–,–,–,–
1,> 16,8,1,> 128,COc1ccc2nccc(-n3cc4c(n3)CCC(NC(=O)c3cc5ccccc5[nH]3)C4)c2c1 (configuration not stated),–,–,–,–,–
0.125,1,1,–,8,COc1ccc2nccc(-n3cc4c(n3)CCC(NC(=O)c3c(F)cc5c(c3F)NC(=O)CS5)C4)c2c1 (configuration not stated),–,–,–,–,–
< 0.125,0.12,4,–,2,COc1ccc2nccc(-n3cc4c(n3)CCC(NC(=O)c3cc5c(cc3Cl)SCC(=O)N5)C4)c2n1 (configuration not stated),–,–,–,–,–
< 0.125,0.5,2,–,2,COc1ccc2nccc(-n3cc4c(n3)CCC(NC(=O)c3cc5c(cc3Cl)SCC(=O)N5)C4)c2c1 (configuration not stated),–,–,–,–,–
0.125,0.25,2,0.25,2,COc1ccc2nccc(-n3cc4c(n3)CCC(NC(=O)c3cc5c(cc3Br)SCC(=O)N5)C4)c2n1 (configuration not stated),–,–,–,–,–
0.125,1,8,0.25,8,COc1ccc2nccc(-n3cc4c(n3)CCC(NC(=O)c3cc5c(cc3C(F)(F)F)SCC(=O)N5)C4)c2c1 (configuration not stated),–,–,–,–,–
2,–,16,–,> 16,COc1ccc2nccc(-n3cc4c(n3)CCC(NC(=O)c3cc5c(cc3OC)SCC(=O)N5)C4)c2n1 (configuration not stated),–,–,–,–,–

MIC (Staphylococcus aureus [2]) [µg/mL],IC50 [3] [µg/mL],MIC (Streptococcus pneumoniae) [µg/mL],IC50 [6] [µg/mL],MIC (Escherichia coli) [µg/mL],SMILES,MIC (Staphylococcus aureus [1]) [µg/mL],MIC (Staphylococcus aureus [4]) [µg/mL],MIC (Staphylococcus aureus [5]) [µg/mL],MIC (Staphylococcus aureus [7]) [µg/mL],MIC (Staphylococcus aureus [8]) [µg/mL]
0.25,–,> 16,–,> 16,COc1ccc2nccc(-n3cc4c(n3)CCC(NC(=O)c3cc5c(cc3C)SCC(=O)N5)C4)c2n1 (configuration not stated),–,–,–,–,–
2,–,> 16,–,> 16,CCOC(=O)c1cc2c(cc1C(=O)NC1CCc3nn(-c4ccnc5ccc(OC)cc45)cc3C1)NC(=O)CS2 (configuration not stated),–,–,–,–,–
1,–,> 16,–,> 16,COc1ccc2nccc(-n3cc4c(n3)CCC(NC(=O)c3cc5c(cc3C(=O)O)SCC(=O)N5)C4)c2c1 (configuration not stated),–,–,–,–,–
0.25,8,2,–,–,COc1ccc2nccc(-n3cc4c(n3)CCC(NC(=O)/C=C/c3ccccc3)C4)c2n1 (configuration not stated),–,–,–,–,–
1,16,4,0.5,–,COc1ccc2nccc(-n3cc4c(n3)CCC(NC(=O)/C=C/c3ccccc3)C4)c2c1 (configuration not stated),–,–,–,–,–
0.25,0.8,< 0.125,–,–,COc1ccc2nccc(-n3cc4c(n3)CCC(NCCCc3ccccc3)C4)c2n1 (configuration not stated),–,–,–,–,–
0.25,> 16,4,–,–,COc1ccc2nccc(-n3cc4c(n3)CCC(NC(=O)c3ccc(C)c([N+](=O)[O-])c3)C4)c2c1 (configuration not stated),–,–,–,–,–
0.25,–,8,–,–,COc1ccc2nccc(-n3cc4c(n3)CCC(NC(=O)c3cc(F)c(Cl)cc3Cl)C4)c2c1 (configuration not stated),–,–,–,–,–
0.5,–,16,–,8,COc1ccc2nccc(-n3cc4c(n3)CCC(NC(=O)c3cc5c(cc3C)SCC(=O)N5)C4)c2c1 (configuration not stated),–,–,–,–,–
0.5,–,> 16,–,> 16,CCOC(=O)c1cc2c(cc1C(=O)NC1CCc3nn(-c4ccnc5ccc(OC)nc45)cc3C1)NC(=O)CS2 (configuration not stated),–,–,–,–,–
0.5,0.25,2,0.25,32,COc1ccc2nccc(-n3cc4c(n3)CCC(NCc3ccc5c(c3)OCO5)C4)c2n1 (configuration not stated),–,–,–,–,–
0.25,< 0.125,2,0.016,2,COc1ccc2nccc(-n3cc4c(n3)CCC(NCc3ccc5c(n3)NC(=O)CO5)C4)c2n1 (configuration not stated),–,–,–,–,–
0.5,–,16,–,> 16,COc1ccc2nccc(-n3cc4c(n3)CCC(NC(=O)c3cc5c(cc3C(=O)O)SCC(=O)N5)C4)c2n1 (configuration not stated),–,–,–,–,–
0.25,–,8,–,–,COc1ccc2nccc(-n3cc4c(n3)CCC(NC(=O)c3ccc(C)c([N+](=O)[O-])c3)C4)c2n1 (configuration not stated),–,–,–,–,–
0.125,1,4,–,> 128,COc1ccc2nccc(-n3cc4c(n3)CCC(NC(=O)c3c(F)cc5c(c3F)NC(=O)CS5)C4)c2n1 (configuration not stated),–,–,–,–,–
0.125,0.5,2,0.125,2,COc1ccc2nccc(-n3cc4c(n3)CCC(NC(=O)c3cc5c(cc3Br)SCC(=O)N5)C4)c2c1 (configuration not stated),–,–,–,–,–
0.125,0.25,8,–,4,COc1ccc2nccc(-n3cc4c(n3)CCC(NC(=O)c3cc5c(cc3C(F)(F)F)SCC(=O)N5)C4)c2n1 (configuration not stated),–,–,–,–,–
0.125,0.25,4,0.5,2,COc1ccc2nccc(-n3cc4c(n3)CCC(NC(=O)c3ccc5c(c3)NC(=O)CO5)C4)c2c1 (configuration not stated),–,–,–,–,–

SMILES,MIC (Staphylococcus aureus [2]) [µg/mL],IC50 [3] [µg/mL],MIC (Streptococcus pneumoniae) [µg/mL],IC50 [6] [µg/mL],MIC (Escherichia coli) [µg/mL],MIC (Staphylococcus aureus [1]) [µg/mL],MIC (Staphylococcus aureus [4]) [µg/mL],MIC (Staphylococcus aureus [5]) [µg/mL],MIC (Staphylococcus aureus [7]) [µg/mL],MIC (Staphylococcus aureus [8]) [µg/mL]
COc1ccc2nccc(-n3cc4c(n3)CCC(NCc3ccc5c(c3)NC(=O)CS5)C4)c2c1 (configuration not stated),0.5,0.06,2,0.16,2,0.5,0.25,0.25,0.25,0.5
COc1ccc2nccc(-n3cc4c(n3)CCC(NCc3ccc5c(c3)NC(=O)CS5)C4)c2n1 (configuration not stated),0.25,0.125,1,0.03,1,0.5,0.125,0.25,0.125,0.5
COc1ccc2nccc(-n3cc4c(n3)CCC(NC(=O)c3cc5c(cc3F)SCC(=O)N5)C4)c2n1 (configuration not stated),0.25,0.12,2,0.125,128,0.031,0.015,0.007,0.007,0.031
COc1ccc2nccc(-n3cc4c(n3)CCC(NC(=O)c3cc5c(cc3F)SCC(=O)N5)C4)c2c1 (configuration not stated),0.03,8,1,0.25,4,0.062,0.031,0.031,0.015,0.062
COc1ccc2nccc(-n3cc4c(n3)CCC(NC/C=C/c3ccccc3)C4)c2c1 (configuration not stated),0.5,4,1,–,–,1,0.25,0.5,0.5,0.5
COc1ccc2nccc(-n3cc4c(n3)CCC(NC/C=C/c3ccccc3)C4)c2n1 (configuration not stated),0.06,0.12,< 0.125,< 0.015,–,0.125,0.062,0.062,0.062,0.125
O=C(O)c1cn(C2CC2)c2cc(N3CCNCC3)c(F)cc2c1=O [CIPROFLOXACIN],0.25,–,–,–,–,–,–,–,–,–
CCn1cc(C(=O)O)c(=O)c2cc(F)c(N3CCNCC3)cc21 [NORFLOXACIN],1,–,–,–,–,> 128,> 128,> 128,128,1
C[C@@H]1CN(c2c(F)c(N)c3c(=O)c(C(=O)O)cn(C4CC4)c3c2F)C[C@H](C)N1 [SPARFLOXACIN],0.062,–,–,–,–,16,8,16,4,0.062
